# In ChEMBL document CHEMBL1158337, “Synthesis and bioassay of a new class of heterocycles pyrrolyl oxadiazoles/thiadiazoles/triazoles” (Eur J Med Chem, 2009):
# How the values were obtained:
# Staphylococcus aureus [1] = assay: Antibacterial activity against Staphylococcus aureus at 100 ug/disk after 24 hrs by agar disc-diffusion method; format: functional; settings: read-out: IZ
# Staphylococcus aureus [2] = assay: Antibacterial activity against Staphylococcus aureus at 200 ug/disk after 24 hrs by agar disc-diffusion method; format: functional; settings: read-out: IZ
# Bacillus subtilis [3] = assay: Antibacterial activity against Bacillus subtilis at 100 ug/disk after 24 hrs by agar disc-diffusion method; format: functional; settings: read-out: IZ
# Bacillus subtilis [4] = assay: Antibacterial activity against Bacillus subtilis at 200 ug/disk after 24 hrs by agar disc-diffusion method; format: functional; settings: read-out: IZ
# Escherichia coli [5] = assay: Antibacterial activity against Escherichia coli at 100 ug/disk after 24 hrs by agar disc-diffusion method; format: functional; settings: read-out: IZ
# Escherichia coli [6] = assay: Antibacterial activity against Escherichia coli at 200 ug/disk after 24 hrs by agar disc-diffusion method; format: functional; settings: read-out: IZ
# Klebsiella pneumoniae [7] = assay: Antibacterial activity against Klebsiella pneumoniae at 100 ug/disk after 24 hrs by agar disc-diffusion method; format: functional; settings: read-out: IZ
# Klebsiella pneumoniae [8] = assay: Antibacterial activity against Klebsiella pneumoniae at 200 ug/disk after 24 hrs by agar disc-diffusion method; format: functional; settings: read-out: IZ
# Fusarium solani [9] = assay: Antifungal activity against Fusarium solani at 100 ug/disk after 48 hrs by agar disc-diffusion method; format: functional; settings: read-out: IZ
# Fusarium solani [10] = assay: Antifungal activity against Fusarium solani at 200 ug/disk after 48 hrs by agar disc-diffusion method; format: functional; settings: read-out: IZ
# Curvularia lunata [11] = assay: Antifungal activity against Curvularia lunata at 100 ug/disk after 48 hrs by agar disc-diffusion method; format: functional; settings: read-out: IZ
# Curvularia lunata [12] = assay: Antifungal activity against Curvularia lunata at 200 ug/disk after 48 hrs by agar disc-diffusion method; format: functional; settings: read-out: IZ
# Aspergillus niger [13] = assay: Antifungal activity against Aspergillus niger at 100 ug/disk after 48 hrs by agar disc-diffusion method; format: functional; settings: read-out: IZ
# Aspergillus niger [14] = assay: Antifungal activity against Aspergillus niger at 200 ug/disk after 48 hrs by agar disc-diffusion method; format: functional; settings: read-out: IZ
# Staphylococcus aureus [15] = assay: Antibacterial activity against Staphylococcus aureus after 24 hrs by microdilution susceptibility method; format: functional
# Bacillus subtilis [16] = assay: Antibacterial activity against Bacillus subtilis after 24 hrs by microdilution susceptibility method; format: functional
# Escherichia coli [17] = assay: Antibacterial activity against Escherichia coli after 24 hrs by microdilution susceptibility method; format: functional
# Klebsiella pneumoniae [18] = assay: Antibacterial activity against Klebsiella pneumoniae after […] by microdilution susceptibility method; format: functional
# Fusarium solani [19] = assay: Antifungal activity against Fusarium solani after 48 hrs by microdilution susceptibility method; format: functional
# Curvularia lunata [20] = assay: Antifungal activity against Curvularia lunata after 48 hrs by microdilution susceptibility method; format: functional
# Aspergillus niger [21] = assay: Antifungal activity against Aspergillus niger after 48 hrs by microdilution susceptibility method; format: functional
# A549 = assay: Cytotoxicity against human A549 cells upto 100 uM after 72 hrs by MTT assay in presence of 10% fetal bovine serum; format: functional, cell-based
# [22] = Cytotoxicity against mink CCL64 cells upto 100 uM after 72 hrs by MTT assay in presence of 0.2% fetal bovine serum; format: cell-based; settings: neovison vison, ccl64, 72 h
Compound,zone of inhibition at 100 µg/disc (Staphylococcus aureus [1]) [mm],zone of inhibition at 200 µg/disc (Staphylococcus aureus [2]) [mm],zone of inhibition at 100 µg/disc (Bacillus subtilis [3]) [mm],zone of inhibition at 200 µg/disc (Bacillus subtilis [4]) [mm],zone of inhibition at 100 µg/disc (Escherichia coli [5]) [mm],zone of inhibition at 200 µg/disc (Escherichia coli [6]) [mm],zone of inhibition at 100 µg/disc (Klebsiella pneumoniae [7]) [mm],zone of inhibition at 200 µg/disc (Klebsiella pneumoniae [8]) [mm],zone of inhibition at 100 µg/disc (Fusarium solani [9]) [mm],zone of inhibition at 200 µg/disc (Fusarium solani [10]) [mm],zone of inhibition at 100 µg/disc (Curvularia lunata [11]) [mm],zone of inhibition at 200 µg/disc (Curvularia lunata [12]) [mm],zone of inhibition at 100 µg/disc (Aspergillus niger [13]) [mm],zone of inhibition at 200 µg/disc (Aspergillus niger [14]) [mm],MIC (Bacillus subtilis [16]) [µg/mL],MIC (Klebsiella pneumoniae [18]) [µg/mL],MIC (Fusarium solani [19]) [µg/mL],MIC (Curvularia lunata [20]) [µg/mL],MIC (Aspergillus niger [21]) [µg/mL],further results
Nn1c(S)nnc1CS(=O)(=O)c1c[nH]cc1S(=O)(=O)c1ccc(Cl)cc1,32,35,34,38,23,25,26,28,35,40,38,41,34,37,50,50,50,12.5,25,MIC (Staphylococcus aureus [15]): 12.5 µg/mL; MIC (Escherichia coli [17]): 50 µg/mL
O=S(=O)(Cc1nnc(S)s1)c1c[nH]cc1S(=O)(=O)c1ccc(Cl)cc1,25,30,28,32,22,27,23,28,26,31,23,25,26,28,200,200,100,100,200,MIC (Staphylococcus aureus [15]): 100 µg/mL; MIC (Escherichia coli [17]): 200 µg/mL
Cc1ccc(S(=O)(=O)c2c[nH]cc2S(=O)(=O)Cc2nnc(S)s2)cc1,16,17,17,19,18,20,16,19,25,27,22,24,21,24,–,–,–,–,–,–
O=S(=O)(Cc1nnc(S)o1)c1c[nH]cc1S(=O)(=O)c1ccccc1,12,15,11,13,14,17,13,16,18,20,17,21,15,20,–,–,–,–,–,Activity (A549): Not toxic; Activity [22]: Non-toxic
CC(=O)N1CCN(c2ccc(OCC3COC(Cn4ccnc4)(c4ccc(Cl)cc4Cl)O3)cc2)CC1 (centres undefined) [KETOCONAZOLE],–,–,–,–,–,–,–,–,38,42,41,44,36,39,–,–,12.5,6.25,6.25,–
Cc1ccc(S(=O)(=O)c2c[nH]cc2S(=O)(=O)Cc2nnc(S)n2N)cc1,24,28,25,27,20,24,21,23,29,33,28,35,34,36,–,–,–,–,–,–
O=C(O)c1cn(C2CC2)c2cc(N3CCNCC3)c(F)cc2c1=O [CIPROFLOXACIN],34,38,36,42,40,45,37,42,–,–,–,–,–,–,6.25,6.25,–,–,–,–
O=S(=O)(Cc1nnc(S)o1)c1c[nH]cc1S(=O)(=O)c1ccc(Cl)cc1,14,17,14,18,10,12,11,13,18,21,17,20,15,18,–,–,–,–,–,–
Cc1ccc(S(=O)(=O)c2c[nH]cc2S(=O)(=O)Cc2nnc(S)o2)cc1,11,14,12,16,11,14,11,13,16,19,15,18,17,21,–,–,–,–,–,–
O=S(=O)(Cc1nnc(S)s1)c1c[nH]cc1S(=O)(=O)c1ccccc1,18,20,21,23,16,20,17,21,25,27,28,29,24,29,–,–,–,–,–,Activity (A549): Not toxic; Activity [22]: Non-toxic
